Experimental data reported in US20210353593A1 (Chinook Therapeutics, Inc., priority 2019, published 2021).
Where two headings read alike, the source gives them in different places.

What was measured:
[1] = tested on: primary human renal mesangial cells (HRMCs); assay: ET-1 induced proliferation (BrdU) of primary human renal mesangial cells; assay type: cell-based; conditions: 10 ng/mL ET-1, read-out: IC50, ET-1 induced HRMC proliferation
[2] = tested on: upstream regulators in kidney tissue of g-ddY mice; assay: IPA upstream regulator analysis, g-ddY mouse kidney RNA-seq; assay type: in vivo; conditions: 30 mg/kg/day
[3] = tested on: ET-1 stimulated HRMC; assay: Hallmark gene set enrichment in ET-1 stimulated HRMC treated with atrasentan; assay type: cell-based, human; conditions: atrasentan at 1 nM and 25 nM

CCCCN(CCCC)C(=O)CN1C[C@H](c2ccc3c(c2)OCO3)[C@@H](C(=O)O)[C@@H]1c1ccc(OC)cc1 [Atrasentan, (2R,3R,4S)-4-(1,3-benzodioxol-5-yl)-1-[2-(dibutylamino)-2-oxoethyl]-2-(4-methoxyphenyl)pyrrolidine-3-carboxylic acid]
IC50 ([1]; 48 hours): 4.2 nM
IC50 ([1]; Homo sapiens, Mesangial cell, 48 h): ~5.1 nM
IC50 ([1]; Homo sapiens, Mesangial cell, 72 h): ~50.8 nM
26s Proteasome Activation z-score [2]: −2.122
26s Proteasome Predicted Activation State [2]: Inhibited
ADGRF5 Activation z-score [2]: 2
ADGRF5 Predicted Activation State [2]: Activated
AGT Activation z-score [2]: −4.741
AGT Predicted Activation State [2]: Inhibited
BMP2 Activation z-score [2]: −2.435
BMP2 Predicted Activation State [2]: Inhibited
CCL5 Activation z-score [2]: −2.268
CCL5 Predicted Activation State [2]: Inhibited
CCN5 Activation z-score [2]: 2.45
CCN5 Predicted Activation State [2]: Activated
CCR2 Activation z-score [2]: −3.791
CCR2 Predicted Activation State [2]: Inhibited
CD40LG Activation z-score [2]: −3.607
CD40LG Predicted Activation State [2]: Inhibited
CG Activation z-score [2]: −4.34
CG Predicted Activation State [2]: Inhibited
CHRM3 Activation z-score [2]: −2.425
CHRM3 Predicted Activation State [2]: Inhibited
CSF2 Activation z-score [2]: −5.645
CSF2 Predicted Activation State [2]: Inhibited
CSF3 Activation z-score [2]: −3.116
CSF3 Predicted Activation State [2]: Inhibited
CXCL12 Activation z-score [2]: −2.851
CXCL12 Predicted Activation State [2]: Inhibited
DKK1 Activation z-score [2]: 2.113
DKK1 Predicted Activation State [2]: Activated
EDN1 Activation z-score [2]: −4.26
EDN1 Predicted Activation State [2]: Inhibited
EDNRA Activation z-score [2]: −2.449
EDNRA Predicted Activation State [2]: Inhibited
EGF Activation z-score [2]: −3.649
EGF Predicted Activation State [2]: Inhibited
F2R Activation z-score [2]: −3.04
F2R Predicted Activation State [2]: Inhibited
F3 Activation z-score [2]: −3.862
F3 Predicted Activation State [2]: Inhibited
FAS Activation z-score [2]: 2.887
FAS Predicted Activation State [2]: Activated
FCGR1A Activation z-score [2]: −2.201
FCGR1A Predicted Activation State [2]: Inhibited
FGF2 Activation z-score [2]: −4.33
FGF2 Predicted Activation State [2]: Inhibited
FGF23 Activation z-score [2]: −2.497
FGF23 Predicted Activation State [2]: Inhibited
GDF2 Activation z-score [2]: −2.055
GDF2 Predicted Activation State [2]: Inhibited
GPER1 Activation z-score [2]: −3.527
GPER1 Predicted Activation State [2]: Inhibited
HGF Activation z-score [2]: −5.138
HGF Predicted Activation State [2]: Inhibited
HTR7 Activation z-score [2]: −2.219
HTR7 Predicted Activation State [2]: Inhibited
IFNA2 Activation z-score [2]: −3.465
IFNA2 Predicted Activation State [2]: Inhibited
IFNAR1 Activation z-score [2]: −3.094
IFNAR1 Predicted Activation State [2]: Inhibited
IFNG Activation z-score [2]: −4.604
IFNG Predicted Activation State [2]: Inhibited
IGF1 Activation z-score [2]: −2.676
IGF1 Predicted Activation State [2]: Inhibited
IGF1R Activation z-score [2]: 2.165
IGF1R Predicted Activation State [2]: Activated
IL1A Activation z-score [2]: −4.942
IL1A Predicted Activation State [2]: Inhibited
IL1B Activation z-score [2]: −7.154
IL1B Predicted Activation State [2]: Inhibited
IL2 Activation z-score [2]: −4.023
IL2 Predicted Activation State [2]: Inhibited
IL3 Activation z-score [2]: −3.894
IL3 Predicted Activation State [2]: Inhibited
IL6 Activation z-score [2]: −3.872
IL6 Predicted Activation State [2]: Inhibited
IL6R Activation z-score [2]: −2.179
IL6R Predicted Activation State [2]: Inhibited
IL10 Activation z-score [2]: −2.775
IL10 Predicted Activation State [2]: Inhibited
IL21 Activation z-score [2]: −2.886
IL21 Predicted Activation State [2]: Inhibited
IL33 Activation z-score [2]: −3.781
IL33 Predicted Activation State [2]: Inhibited
Ifn gamma Activation z-score [2]: −3.354
Ifn gamma Predicted Activation State [2]: Inhibited
Ige Activation z-score [2]: −4.883
Ige Predicted Activation State [2]: Inhibited
LDL Activation z-score [2]: −3.568
LDL Predicted Activation State [2]: Inhibited
LGR5 Activation z-score [2]: 2.137
LGR5 Predicted Activation State [2]: Activated
Laminin (complex) Activation z-score [2]: 2.043
Laminin (complex) Predicted Activation State [2]: Activated
NFkB (complex) Activation z-score [2]: −5.503
NFkB (complex) Predicted Activation State [2]: Inhibited
NRG1 Activation z-score [2]: −3.478
NRG1 Predicted Activation State [2]: Inhibited
OSM Activation z-score [2]: −5.912
OSM Predicted Activation State [2]: Inhibited
PDGF BB Activation z-score [2]: −3.976
PDGF BB Predicted Activation State [2]: Inhibited
PDGFB Activation z-score [2]: −2.622
PDGFB Predicted Activation State [2]: Inhibited
PF4 Activation z-score [2]: −2.219
PF4 Predicted Activation State [2]: Inhibited
PI3K (complex) Activation z-score [2]: −3.293
PI3K (complex) Predicted Activation State [2]: Inhibited
PLA2R1 Activation z-score [2]: 2.917
PLA2R1 Predicted Activation State [2]: Activated
PRL Activation z-score [2]: −3.529
PRL Predicted Activation State [2]: Inhibited
PROKR1 Activation z-score [2]: 2
PROKR1 Predicted Activation State [2]: Activated
PTGER4 Activation z-score [2]: 2.017
PTGER4 Predicted Activation State [2]: Activated
Pdgf (complex) Activation z-score [2]: −2.779
Pdgf (complex) Predicted Activation State [2]: Inhibited
SMO Activation z-score [2]: 2.621
SMO Predicted Activation State [2]: Activated
TCR Activation z-score [2]: −2.362
TCR Predicted Activation State [2]: Inhibited
TGFB1 Activation z-score [2]: −5.163
TGFB1 Predicted Activation State [2]: Inhibited
TGFB2 Activation z-score [2]: −2.631
TGFB2 Predicted Activation State [2]: Inhibited
TGFB3 Activation z-score [2]: −2.663
TGFB3 Predicted Activation State [2]: Inhibited
TLR3 Activation z-score [2]: −5.02
TLR3 Predicted Activation State [2]: Inhibited
TLR4 Activation z-score [2]: −4.561
TLR4 Predicted Activation State [2]: Inhibited
TLR9 Activation z-score [2]: −4.894
TLR9 Predicted Activation State [2]: Inhibited
TNF Activation z-score [2]: −6.593
TNF Predicted Activation State [2]: Inhibited
TNFRSF1A Activation z-score [2]: −2.449
TNFRSF1A Predicted Activation State [2]: Inhibited
TNFSF11 Activation z-score [2]: −2.519
TNFSF11 Predicted Activation State [2]: Inhibited
TNFSF12 Activation z-score [2]: −3.271
TNFSF12 Predicted Activation State [2]: Inhibited
TREM1 Activation z-score [2]: −3.62
TREM1 Predicted Activation State [2]: Inhibited
TSLP Activation z-score [2]: −2.533
TSLP Predicted Activation State [2]: Inhibited
TYROBP Activation z-score [2]: −2.376
TYROBP Predicted Activation State [2]: Inhibited
VEGFA Activation z-score [2]: −2.501
VEGFA Predicted Activation State [2]: Inhibited
VEGFB Activation z-score [2]: 3.128
VEGFB Predicted Activation State [2]: Activated
WNT3A Activation z-score [2]: −3.711
WNT3A Predicted Activation State [2]: Inhibited
hallmark gene set enrichment in HRMC model [3]: under-expression of hallmark gene sets
